Reference: paper PMC11233931, “Remodeling tumor‐associated macrophage for anti‐cancer effects by rational design of irreversible inhibition of mitogen‐activated protein kinase‐activated protein kinase 2” (MedComm, 2024)

Columns and labels:
Assay in all cases: Eurofins kinase selectivity profile against 380 other human recombinant kinases (Table S2)
Assay type in all cases: biochemical
[1] = molecular target: T1, 380 human recombinant protein kinases (Homo sapiens, UniProt Q15418); settings: Rsk1(h), read-out: Inhibition rate
T1 construct: purchased Eurofins (Celle Lévescault)
T1 sequence (Q15418 whole entry): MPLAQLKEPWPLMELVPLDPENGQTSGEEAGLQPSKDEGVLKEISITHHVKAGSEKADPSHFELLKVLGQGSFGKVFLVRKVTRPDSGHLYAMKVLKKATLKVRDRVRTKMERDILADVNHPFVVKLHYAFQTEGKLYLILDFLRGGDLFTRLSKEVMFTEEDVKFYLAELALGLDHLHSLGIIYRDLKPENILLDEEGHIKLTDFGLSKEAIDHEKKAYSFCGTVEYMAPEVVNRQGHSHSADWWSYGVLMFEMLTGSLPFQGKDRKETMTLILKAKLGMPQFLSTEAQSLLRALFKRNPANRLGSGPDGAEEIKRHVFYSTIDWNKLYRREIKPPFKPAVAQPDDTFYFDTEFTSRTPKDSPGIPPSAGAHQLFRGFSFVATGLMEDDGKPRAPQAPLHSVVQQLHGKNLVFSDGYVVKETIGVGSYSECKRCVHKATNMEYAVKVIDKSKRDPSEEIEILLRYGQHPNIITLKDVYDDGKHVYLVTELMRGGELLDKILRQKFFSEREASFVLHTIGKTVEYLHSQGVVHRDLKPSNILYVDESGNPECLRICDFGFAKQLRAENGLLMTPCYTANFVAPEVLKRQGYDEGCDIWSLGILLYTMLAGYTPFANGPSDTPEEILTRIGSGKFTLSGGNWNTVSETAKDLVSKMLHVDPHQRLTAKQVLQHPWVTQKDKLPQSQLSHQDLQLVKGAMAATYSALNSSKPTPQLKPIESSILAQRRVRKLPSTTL
Procedure, shortened: (§1)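 Values come from a contract kinase-profiling service that tested the compound at multiple concentrations across 380 recombinant human kinases, as an off-target check against the MK2 activity.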

[2] = molecular target: T2, 380 human recombinant protein kinases (Homo sapiens, UniProt Q9H4B4); settings: Plk3(h), read-out: Inhibition rate
T2 construct: purchased Eurofins (Celle Lévescault)
T2 sequence (Q9H4B4 whole entry): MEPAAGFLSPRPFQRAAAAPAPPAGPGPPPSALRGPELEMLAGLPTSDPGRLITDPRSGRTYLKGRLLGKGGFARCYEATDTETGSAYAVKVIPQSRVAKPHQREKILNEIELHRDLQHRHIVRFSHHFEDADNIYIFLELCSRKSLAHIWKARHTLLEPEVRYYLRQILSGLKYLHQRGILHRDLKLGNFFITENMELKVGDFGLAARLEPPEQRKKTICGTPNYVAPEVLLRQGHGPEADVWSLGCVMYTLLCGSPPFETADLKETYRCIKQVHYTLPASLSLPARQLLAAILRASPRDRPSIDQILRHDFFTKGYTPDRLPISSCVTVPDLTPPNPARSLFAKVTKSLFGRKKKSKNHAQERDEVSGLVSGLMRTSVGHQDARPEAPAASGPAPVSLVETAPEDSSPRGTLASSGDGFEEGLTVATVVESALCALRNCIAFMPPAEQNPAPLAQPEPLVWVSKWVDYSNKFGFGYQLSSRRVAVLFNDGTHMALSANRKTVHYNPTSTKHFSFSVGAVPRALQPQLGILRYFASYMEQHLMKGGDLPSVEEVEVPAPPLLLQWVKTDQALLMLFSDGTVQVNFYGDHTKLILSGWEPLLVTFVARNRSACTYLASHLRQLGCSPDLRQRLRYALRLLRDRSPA
Procedure, shortened: as §1

[3] = molecular target: T3, 380 human recombinant protein kinases (Homo sapiens, UniProt P07948); settings: Lyn(h), read-out: Inhibition rate
T3 construct: purchased Eurofins (Celle Lévescault)
T3 sequence (P07948 whole entry): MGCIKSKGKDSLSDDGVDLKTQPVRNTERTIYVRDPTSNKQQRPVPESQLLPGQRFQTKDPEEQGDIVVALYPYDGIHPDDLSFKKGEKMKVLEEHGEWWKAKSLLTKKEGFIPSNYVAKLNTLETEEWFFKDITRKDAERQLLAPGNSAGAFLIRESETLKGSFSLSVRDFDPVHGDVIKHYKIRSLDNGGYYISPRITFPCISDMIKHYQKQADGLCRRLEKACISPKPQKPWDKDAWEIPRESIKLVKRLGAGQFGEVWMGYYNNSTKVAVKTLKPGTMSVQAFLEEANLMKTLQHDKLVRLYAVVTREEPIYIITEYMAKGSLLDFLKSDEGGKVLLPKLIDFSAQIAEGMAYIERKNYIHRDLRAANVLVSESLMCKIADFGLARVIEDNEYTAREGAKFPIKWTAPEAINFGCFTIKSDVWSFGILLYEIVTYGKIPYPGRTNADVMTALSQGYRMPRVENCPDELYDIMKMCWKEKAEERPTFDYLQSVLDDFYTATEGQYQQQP
Procedure, shortened: as §1

[4] = molecular target: T4, 380 human recombinant protein kinases (Homo sapiens, UniProt Q13546); settings: RIPK1(h), read-out: Inhibition rate
T4 construct: purchased Eurofins (Celle Lévescault)
T4 sequence (Q13546 1-671): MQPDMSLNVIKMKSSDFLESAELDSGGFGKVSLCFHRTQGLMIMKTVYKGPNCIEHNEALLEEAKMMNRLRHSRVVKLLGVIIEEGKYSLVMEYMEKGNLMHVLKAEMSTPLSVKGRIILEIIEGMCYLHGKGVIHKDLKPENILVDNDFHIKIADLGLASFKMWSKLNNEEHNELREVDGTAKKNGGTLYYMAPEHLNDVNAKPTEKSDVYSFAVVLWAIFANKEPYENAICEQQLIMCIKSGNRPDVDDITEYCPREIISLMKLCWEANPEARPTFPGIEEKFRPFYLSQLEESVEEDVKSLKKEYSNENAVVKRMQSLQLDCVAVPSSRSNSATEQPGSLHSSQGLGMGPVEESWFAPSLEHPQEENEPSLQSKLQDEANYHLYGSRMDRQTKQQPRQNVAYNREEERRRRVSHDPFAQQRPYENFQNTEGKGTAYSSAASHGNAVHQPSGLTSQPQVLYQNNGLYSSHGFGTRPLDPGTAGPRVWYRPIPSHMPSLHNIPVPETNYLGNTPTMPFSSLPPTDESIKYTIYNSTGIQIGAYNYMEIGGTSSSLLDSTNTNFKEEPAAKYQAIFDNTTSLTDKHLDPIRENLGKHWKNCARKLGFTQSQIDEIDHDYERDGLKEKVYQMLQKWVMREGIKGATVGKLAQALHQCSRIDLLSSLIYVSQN
Procedure, shortened: as §1

[5] = molecular target: T5, 380 human recombinant protein kinases (Homo sapiens, UniProt Q9Y6M4); settings: CK1γ3(h), read-out: Inhibition rate
T5 construct: purchased Eurofins (Celle Lévescault)
T5 sequence (Q9Y6M4 whole entry): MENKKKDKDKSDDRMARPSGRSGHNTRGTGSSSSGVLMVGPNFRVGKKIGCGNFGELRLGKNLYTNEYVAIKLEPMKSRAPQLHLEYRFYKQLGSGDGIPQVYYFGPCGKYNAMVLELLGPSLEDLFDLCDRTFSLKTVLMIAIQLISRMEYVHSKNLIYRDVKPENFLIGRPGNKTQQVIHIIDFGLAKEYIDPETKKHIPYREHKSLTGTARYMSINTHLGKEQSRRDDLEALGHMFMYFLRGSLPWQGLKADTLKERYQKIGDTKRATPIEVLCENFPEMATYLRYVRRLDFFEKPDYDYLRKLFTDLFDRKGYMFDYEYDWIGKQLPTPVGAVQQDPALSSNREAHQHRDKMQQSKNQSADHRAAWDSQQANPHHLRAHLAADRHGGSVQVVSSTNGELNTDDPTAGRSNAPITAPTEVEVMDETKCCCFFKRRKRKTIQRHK
Procedure, shortened: as §1

[6] = molecular target: T6, 380 human recombinant protein kinases (Homo sapiens, UniProt Q9H2G2); settings: SLK(h), read-out: Inhibition rate (%)
T6 construct: purchased Eurofins (Celle Lévescault)
Procedure, shortened: as §1

[7] = molecular target: T7, 380 human recombinant protein kinases (Homo sapiens, UniProt P08922); settings: Ros(h), read-out: Inhibition rate
T7 construct: purchased Eurofins (Celle Lévescault)
T7 sequence (P08922 28-2347): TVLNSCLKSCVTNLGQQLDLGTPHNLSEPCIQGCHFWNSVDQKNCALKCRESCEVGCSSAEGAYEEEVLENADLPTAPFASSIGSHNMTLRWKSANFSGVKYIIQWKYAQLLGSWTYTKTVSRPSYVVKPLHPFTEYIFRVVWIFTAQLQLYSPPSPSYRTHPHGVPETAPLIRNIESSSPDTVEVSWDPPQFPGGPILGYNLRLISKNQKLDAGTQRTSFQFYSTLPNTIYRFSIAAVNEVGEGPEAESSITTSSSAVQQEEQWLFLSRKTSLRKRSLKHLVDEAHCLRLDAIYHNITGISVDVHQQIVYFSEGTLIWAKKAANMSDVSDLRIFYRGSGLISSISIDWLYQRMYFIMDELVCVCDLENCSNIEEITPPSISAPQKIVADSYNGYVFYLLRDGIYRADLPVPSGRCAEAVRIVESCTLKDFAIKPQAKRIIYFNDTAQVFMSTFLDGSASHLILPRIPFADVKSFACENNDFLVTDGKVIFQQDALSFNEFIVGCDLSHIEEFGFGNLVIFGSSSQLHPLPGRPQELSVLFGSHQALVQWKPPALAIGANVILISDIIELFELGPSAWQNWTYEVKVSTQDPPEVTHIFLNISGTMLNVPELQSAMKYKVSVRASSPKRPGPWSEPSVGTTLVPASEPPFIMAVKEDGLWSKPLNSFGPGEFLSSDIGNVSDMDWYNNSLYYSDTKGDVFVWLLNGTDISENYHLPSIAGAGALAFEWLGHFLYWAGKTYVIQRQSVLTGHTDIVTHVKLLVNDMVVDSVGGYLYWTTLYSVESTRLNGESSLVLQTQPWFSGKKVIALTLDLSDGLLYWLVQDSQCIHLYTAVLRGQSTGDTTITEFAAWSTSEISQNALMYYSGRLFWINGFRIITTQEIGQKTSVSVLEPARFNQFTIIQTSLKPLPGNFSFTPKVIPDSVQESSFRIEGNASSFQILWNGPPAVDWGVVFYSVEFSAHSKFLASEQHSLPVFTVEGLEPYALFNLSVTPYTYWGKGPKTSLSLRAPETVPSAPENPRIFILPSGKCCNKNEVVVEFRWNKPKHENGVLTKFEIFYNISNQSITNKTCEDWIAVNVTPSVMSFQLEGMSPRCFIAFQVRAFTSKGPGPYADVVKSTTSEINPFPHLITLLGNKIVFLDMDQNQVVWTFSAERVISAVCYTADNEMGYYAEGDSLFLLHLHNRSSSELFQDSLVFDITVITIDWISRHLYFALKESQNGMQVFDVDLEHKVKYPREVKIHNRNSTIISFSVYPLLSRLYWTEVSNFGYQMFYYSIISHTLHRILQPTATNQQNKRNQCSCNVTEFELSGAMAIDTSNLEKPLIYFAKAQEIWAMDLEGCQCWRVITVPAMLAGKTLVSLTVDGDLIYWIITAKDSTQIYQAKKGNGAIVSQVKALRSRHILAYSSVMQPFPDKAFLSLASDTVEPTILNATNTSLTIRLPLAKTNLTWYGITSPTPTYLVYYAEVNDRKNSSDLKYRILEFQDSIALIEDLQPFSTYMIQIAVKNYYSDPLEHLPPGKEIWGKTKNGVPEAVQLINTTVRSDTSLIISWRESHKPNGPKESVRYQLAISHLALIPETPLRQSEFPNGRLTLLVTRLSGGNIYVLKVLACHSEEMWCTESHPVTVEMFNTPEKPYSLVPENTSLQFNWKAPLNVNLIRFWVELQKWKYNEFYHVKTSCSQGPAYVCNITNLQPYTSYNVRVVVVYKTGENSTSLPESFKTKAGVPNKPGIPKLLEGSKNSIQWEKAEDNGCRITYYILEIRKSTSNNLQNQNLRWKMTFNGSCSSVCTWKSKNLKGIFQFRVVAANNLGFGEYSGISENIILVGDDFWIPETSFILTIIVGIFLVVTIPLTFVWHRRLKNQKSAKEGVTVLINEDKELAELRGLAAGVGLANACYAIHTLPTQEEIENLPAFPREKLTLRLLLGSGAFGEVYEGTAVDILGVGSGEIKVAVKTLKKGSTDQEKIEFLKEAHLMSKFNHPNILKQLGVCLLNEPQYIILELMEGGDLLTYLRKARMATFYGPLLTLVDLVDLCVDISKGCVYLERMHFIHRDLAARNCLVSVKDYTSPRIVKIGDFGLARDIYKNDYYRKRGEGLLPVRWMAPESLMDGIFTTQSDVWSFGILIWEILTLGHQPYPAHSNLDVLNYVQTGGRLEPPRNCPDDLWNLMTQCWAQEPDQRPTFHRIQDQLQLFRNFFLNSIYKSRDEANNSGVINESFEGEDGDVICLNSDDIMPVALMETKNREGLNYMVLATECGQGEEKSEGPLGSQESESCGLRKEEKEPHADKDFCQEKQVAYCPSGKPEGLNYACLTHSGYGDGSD
Procedure, shortened: as §1

[8] = molecular target: T8, 380 human recombinant protein kinases (Homo sapiens, UniProt Q14164); settings: IKKε(h), read-out: Inhibition rate
T8 construct: purchased Eurofins (Celle Lévescault)
T8 sequence (Q14164 1-716): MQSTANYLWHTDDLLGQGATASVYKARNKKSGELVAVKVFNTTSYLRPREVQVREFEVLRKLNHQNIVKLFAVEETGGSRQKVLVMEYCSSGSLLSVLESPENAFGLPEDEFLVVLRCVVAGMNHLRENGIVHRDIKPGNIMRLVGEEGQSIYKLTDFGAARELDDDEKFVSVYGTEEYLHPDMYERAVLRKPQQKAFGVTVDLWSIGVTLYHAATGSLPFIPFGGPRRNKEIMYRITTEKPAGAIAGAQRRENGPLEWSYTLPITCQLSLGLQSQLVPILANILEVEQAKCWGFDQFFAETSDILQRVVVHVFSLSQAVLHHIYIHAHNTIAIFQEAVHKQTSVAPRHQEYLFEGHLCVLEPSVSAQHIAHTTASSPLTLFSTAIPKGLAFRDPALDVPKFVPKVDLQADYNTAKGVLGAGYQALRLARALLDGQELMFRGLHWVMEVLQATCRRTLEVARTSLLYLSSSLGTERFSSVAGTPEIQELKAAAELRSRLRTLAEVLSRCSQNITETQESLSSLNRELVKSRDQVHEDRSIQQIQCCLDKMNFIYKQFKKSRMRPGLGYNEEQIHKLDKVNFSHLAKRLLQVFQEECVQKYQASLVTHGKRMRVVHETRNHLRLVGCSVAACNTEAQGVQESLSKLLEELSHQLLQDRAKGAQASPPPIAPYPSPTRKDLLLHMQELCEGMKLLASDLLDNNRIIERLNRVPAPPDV
Procedure, shortened: as §1

C=CC(=O)Nc1cc(-c2cc(-c3cc4c([nH]3)CCNC4=O)ccn2)ccc1OC(F)(F)F [compound 11]
inhibition at 0.01 µM ([1]; 10 nM): -2%
inhibition at 0.1 µM ([1]; 100 nM): -3%
inhibition at 1 µM ([1]; 1000 nM): -7%
inhibition at 0.01 µM ([2]; 10 nM): 10%
inhibition at 0.1 µM ([2]; 100 nM): 6%
inhibition at 1 µM ([2]; 1000 nM): 15%
inhibition at 0.01 µM ([3]; 10 nM): -1%
inhibition at 0.1 µM ([3]; 100 nM): -11%
inhibition at 1 µM ([3]; 1000 nM): -11%
inhibition at 0.01 µM ([4]; 10 nM): -7%
inhibition at 0.1 µM ([4]; 100 nM): -3%
inhibition at 1 µM ([4]; 1000 nM): 3%
inhibition at 0.01 µM ([5]; 10 nM): -13%
inhibition at 0.1 µM ([5]; 100 nM): 15%
inhibition at 1 µM ([5]; 1000 nM): 67%
inhibition at 0.01 µM ([6]; 10 nM): 1%
inhibition at 0.1 µM ([6]; 100 nM): 4%
inhibition at 1 µM ([6]; 1000 nM): 4%
inhibition at 0.01 µM ([7]; 10 nM): 1%
inhibition at 0.1 µM ([7]; 100 nM): 1%
inhibition at 1 µM ([7]; 1000 nM): 6%
inhibition at 0.01 µM ([8]; 10 nM): -2%
inhibition at 0.1 µM ([8]; 100 nM): -1%
inhibition at 1 µM ([8]; 1000 nM): 5%
